Assay [1] concerns the target T1, endothelin receptor (Bos taurus, UniProt P21450).
T1 construct: from tissue
T1 sequence (P21450 21-427): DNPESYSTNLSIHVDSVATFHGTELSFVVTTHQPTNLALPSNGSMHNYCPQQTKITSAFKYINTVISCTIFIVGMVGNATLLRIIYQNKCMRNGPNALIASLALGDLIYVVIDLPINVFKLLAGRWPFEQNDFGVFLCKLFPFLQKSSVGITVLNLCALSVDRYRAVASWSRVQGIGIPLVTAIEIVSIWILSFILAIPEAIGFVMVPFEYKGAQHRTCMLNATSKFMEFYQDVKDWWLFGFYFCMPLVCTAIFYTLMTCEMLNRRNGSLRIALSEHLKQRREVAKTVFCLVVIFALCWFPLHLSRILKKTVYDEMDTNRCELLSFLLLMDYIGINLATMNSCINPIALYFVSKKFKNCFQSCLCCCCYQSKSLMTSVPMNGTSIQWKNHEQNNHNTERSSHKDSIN
Nature of the assay: Endothelin receptor binding inhibition (125I-endothelin-1), bovine lung membrane fraction with RES-701-1 added (Test Example 2). Particulars: read-out: IC₅₀. How it is done: (§1) The resulting solid substance was prepared as a suspension containing 2 mg/ml of protein, and the suspension was used as a membrane fraction liquid. […]

The target of assay [2] is T2, endothelin receptor (Bos taurus, UniProt P28088).
T2 construct: the suspension was used as a membrane fraction liquid; from tissue; host or cells: bovine cerebellum membrane fraction
T2 sequence (P28088 27-441): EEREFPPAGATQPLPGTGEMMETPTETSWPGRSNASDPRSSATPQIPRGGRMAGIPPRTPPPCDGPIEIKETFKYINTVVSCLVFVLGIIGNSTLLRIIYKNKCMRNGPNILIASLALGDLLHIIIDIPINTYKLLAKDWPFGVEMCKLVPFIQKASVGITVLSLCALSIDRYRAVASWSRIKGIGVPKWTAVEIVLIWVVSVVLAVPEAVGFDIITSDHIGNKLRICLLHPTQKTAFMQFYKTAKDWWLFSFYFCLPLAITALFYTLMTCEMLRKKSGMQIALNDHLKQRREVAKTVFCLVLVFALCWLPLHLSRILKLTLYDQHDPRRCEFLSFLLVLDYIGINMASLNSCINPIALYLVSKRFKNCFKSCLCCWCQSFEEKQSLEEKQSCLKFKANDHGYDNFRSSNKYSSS
Nature of the assay: Endothelin receptor binding inhibition (125I-endothelin-1), bovine cerebellum membrane fraction (Test Example 1). The conditions noted are these: read-out: IC₅₀. How it is done: as §1

SMILES strings stand for the structures. Where two headings read alike, the source gives them in different places.

As to `COC(=O)[C@H](Cc1c[nH]c2ccccc12)NC(=O)[C@H](Cc1ccc(O)cc1)NC(=O)[C@H](Cc1ccc(O)cc1)NC(=O)[C@H](CC(N)=O)NC(=O)[C@H](Cc1ccccc1)NC(=O)[C@H](Cc1ccccc1)NC(=O)[C@H](Cc1c[nH]c2ccccc12)NC(=O)[C@@H]1CC(=O)NCC(=O)N[C@@H](CC(N)=O)C(=O)N[C@@H](Cc2c[nH]c3ccccc23)C(=O)N[C@@H](Cc2c[nH]cn2)C(=O)NCC(=O)N[C@@H]([C@@H](C)O)C(=O)N[C@@H](C)C(=O)N2CCC[C@H]2C(=O)N1` [(I-1)], the IC50 in assay [1] (Concentration causing 50 % inhibition of endothelin-1 binding, bovine lung tissue membrane fraction, RES-701-1 added at […]) amounted to 58 nM; in assay [2] (Concentration causing 50 % inhibition of endothelin-1 binding, bovine cerebellum tissue membrane fraction, 25°C for 2 hours), […].

Turning to `C[C@@H]1NC(=O)[C@H]([C@@H](C)O)NC(=O)CNC(=O)[C@H](Cc2c[nH]cn2)NC(=O)[C@H](Cc2c[nH]c3ccccc23)NC(=O)[C@H](CC(N)=O)NC(=O)CNC(=O)C[C@@H](C(=O)N[C@@H](Cc2c[nH]c3ccccc23)C(=O)N[C@@H](Cc2ccccc2)C(=O)N[C@@H](Cc2ccccc2)C(=O)N[C@@H](CC(N)=O)C(=O)N[C@@H](Cc2ccc(O)cc2)C(=O)N[C@@H](Cc2ccc(O)cc2)C(=O)N[C@@H](Cc2c[nH]c3ccccc23)C(N)=O)NC(=O)[C@@H]2CCCN2C1=O` [(I-3)], the results for the IC50 in assay [1] and in assay [2] were greater than 490 nM and 49 nM, respectively.

For the origin of these results see patent publication EP0698614A1, “Endothelin-antagonizing peptide” (KYOWA HAKKO KOGYO CO., LTD., priority 1994, dated 1996).
